Measured values taken from patent publication US7125858B2, “Hyaluronic acid in the treatment of cancer” (Bioniche Life Sciences Inc., priority 1999, dated 2006).

Assays:
[1] = tested on: MCF-7 human breast cancer cells; test: MTT cell proliferation, MCF-7; type: cell-based
Description: (§1) Cell proliferation was measured using dimethylthiazoldiphenyltetrazolium (MTT) reduction (Mosman et al. J. Immunol. Methods 65:55, 1983). Unless otherwise stated, 100 μl of 5 mg of MTT (Sigma-Aldrich, St. Louis, Mo., USA) dissolved in 1 ml of PBS was added into each well. After 4 h, medium was removed from each well, 1.0 ml of acid-isopropanol (0.04 N HCl in isopropanol) was added and reduced MTT was solubilized by mixing. Absorbency of the reaction product was measured at a wavelength of 570 nm using a multiplate spectrophotometer reader (Elx800 Model, Bio-TEK Instruments Inc., Winooski, Vt., USA).
(§2) Unless stated otherwise 1.0×10^5 cells/ml were seeded in 6-well flat-bottom tissue culture plates and were maintained for 48 h at 37° C. in a 5% CO2 atmosphere.
(§3) PC-3, LNCAP and Du-145 human prostate cancer cells; MCF-7 human breast cancer cells; HT-1080 human fibrosarcoma cancer cells; B16F1 murine melanoma cells; and, UMUC-3, RT-4, HT-1376 and T-24 human bladder cancer cells were incubated with 0.8, 8.0 and 80 μg/ml of 5.0–7.5×10^5 Da HA (Table 2).
(§4) Unless stated otherwise 2.0×10^4 cells/ml were seeded in 24-well plates and were maintained for 48 h at 37° C. in a 5% CO2 atmosphere. MTT was used at 50 μl per well.
(§5) T-24 human bladder cancer cells, PC-3 and Du-145 human prostate cancer cells, and MCF-7 human breast cancer cell were incubated with saline or with 80.0 μg/ml of 5.0–7.5×10^5 Da HA+1.0 μg/ml of M-DNA (Table 4).
MCF-7 human breast cancer cells (2.5×10^5 cells/ml) were incubated as in Example 6 with 0.0, 0.01 and 0.1 μg/ml of 5.0–7.5×10^5 Da HA+100 μg/ml of the synthetic 6 base oligonucleotide GG(GT)1GG (SEQ ID NO:1) or +100 μg/ml of the […] 27 base oligonucleotide (GT)13G (SEQ ID NO:2) (Table 6). MTT was used at 50 μl per well.
(§6) RT-4 human bladder cancer cells and MCF-7 human breast cancer cells were incubated as in Example 6 with 0.0, 0.008 or 0.08 μg/ml of 5.0–7.5×10^5 Da HA+0.1 μg/ml of CIS, +1.0 μg/ml of 5-FU or +10 μg/ml of 5-FU (Table 7).
(§7) CD44 expression and the inhibition of proliferation by 5.0–7.5×10^5 Da HA were measured using Jurkat T cell leukemia cells; MCF-7 human breast cancer cells; RT-4, T-24, HT-1376 and UMUC-3 human bladder cancer cells; and, PC-3, Du-145 and LNCaP prostate cancer cells (Table 8)

[2] = tested on: HT-1080 human fibrosarcoma cancer cells; test: MTT cell proliferation, HT-1080; type: cell-based; conditions: 1.0×10^5 cells/ml, 48 h
Description: as §1, §2, §3

[3] = tested on: HT-1376 human bladder cancer cells; test: MTT cell proliferation, HT-1376; type: cell-based; conditions: 48 h
Description: as §1, §2, §3, §4
(§8) HT-1376, RT-4 and T-24 human bladder cancer cells were incubated with 0.8 μg/ml of 5.0–7.5×10^5 Da HA+1.0 μg/ml of MCC (Table 5).
as §7

[4] = tested on: UMUC-3 human bladder cancer cells; test: MTT cell proliferation, UMUC-3; type: cell-based; conditions: 1.0×10^5 cells/ml, 48 h
Description: as §1, §2, §3, §7

[5] = tested on: RT-4 human bladder cancer cells; test: MTT cell proliferation, RT-4; type: cell-based
Description: as §1, §2, §3, §4, §8, §6, §7

[6] = tested on: Jurkat T cell leukemia cells; test: MTT cell proliferation, Jurkat T; type: cell-based; conditions: HA 80 μg/ml alone
Description: as §1, §7

[7] = tested on: Du-145 human prostate cancer cells; test: MTT cell proliferation, Du-145; type: cell-based; conditions: 48 h
Description: as §1, §2, §3
(§9) PC-3. LNCaP and Du-145 human prostate cancer cells were incubated with 8.0 μg/ml of 5.0–7.5×10^5 Da HA or of <1.5×10^4 Da HA (Table 3).
as §4, §5, §7

[8] = tested on: B16F1 murine melanoma cells; test: MTT cell proliferation, B16F1; type: cell-based; conditions: 1.0×10^5 cells/ml, 48 h
Description: as §1, §2, §3

[9] = tested on: PC-3 human prostate cancer cells; test: MTT cell proliferation, PC-3; type: cell-based; conditions: 48 h
Description: as §1, §2, §3, §9, §4, §5, §7

[10] = tested on: IL-6; test: IL-6 production by PBMCs (ELISA); type: cell-based, human
Description: (§10) Peripheral blood mononuclear cells (hereinafter, “PBMCs”) were isolated from the blood of 5 healthy humans by Ficoll-Hypaque (Amersham Pharmacia Biotech, Baie d'Urfée, Québec, Canada) density gradient centrifugation of whole blood. Stimulation of IL-6 and IL-12 production by the immune system cells was determined using the appropriate commercial ELISA (BioSource, Camarillo, Calif., USA). Results are expressed as the “fold” (x) increases in cytokine production by treated cells compared to control cells. PBMCs were incubated with 1 mg/ml of 5.0–7.5×10^5 Da and production of IL-6 and IL-12 was determined (Table 9). PBMCs, isolated from the blood of individual #1, were incubated with 0.008, 0.04, 0.2 and 1 mg/ml of 5.0–7.5×10^5 Da (Table 10)

[11] = tested on: LNCaP human prostate cancer cells; test: MTT cell proliferation, LNCaP; type: cell-based; conditions: 1.0×10^5 cells/ml, 48 h
Description: as §1, §2, §3, §9, §7

[12] = tested on: T-24 human bladder cancer cells; test: MTT cell proliferation, T-24; type: cell-based; conditions: 48 h
Description: as §1, §2, §3, §4, §5, §8, §7

[13] = tested on: IL-12; test: IL-12 production by PBMCs (ELISA); type: cell-based, human
Description: as §10

[14] = tested on: colon-26 cancer cells; conditions: HA alone; colon-26 cells express high levels of HA receptors (Freemantle et al. 1995); cited from earlier work
[15] = tested on: B16F10 murine melanoma tumor; conditions: HA 1 mg/ml over 7 days by Alzet osmotic pump into the immediate vicinity of the tumor; cited from earlier work
[16] = tested on: rectal, gastric, breast, prostate and endometrial cancers; conditions: HA >750 mg/kg administered with various other therapeutic agents over various periods of time (PCT/CA/00283); cited from earlier work
[17] = MCF-7 2.5×10^5 cells/ml, oligonucleotide 100 μg/ml alone (HA 0.0 μg/ml)
[18] = HA 0.8 μg/ml alone, 1.0×10^5 cells/ml
[19] = HA 8.0 μg/ml alone, 1.0×10^5 cells/ml
[20] = HA 80.0 μg/ml alone, 1.0×10^5 cells/ml
[21] = HA at 0.8 μg/ml alone (+ saline), 2.0×10^4 cells/ml, 24-well
[22] = HA 8.0 μg/ml alone, 1.0×10^5 cells/ml, listed as 0.5–7.5 × 10^5 Da HA
[23] = HA 80.0 μg/ml alone (+ saline), 2.0×10^4 cells/ml, 24-well
[24] = PBMCs of individual 1, HA 1 mg/ml
[25] = PBMCs of individual 2, HA 1 mg/ml
[26] = PBMCs of individual 3, HA 1 mg/ml
[27] = PBMCs of individual 4, HA 1 mg/ml
[28] = PBMCs of individual 5, HA 1 mg/ml
[29] = PBMCs of individual #1, HA 0.008 mg/ml
[30] = PBMCs of individual #1, HA 0.040 mg/ml
[31] = PBMCs of individual #1, HA 0.200 mg/ml

## (GT)13G (DNA GTGTGTGTGTGTGTGTGTGTGTGTGTG; listed as DNA, chemistry not given here) [(G1T)13G, synthetic 27 base oligonucleotide]
[1]; [17]
  % inhibition of cell proliferation: 44%

## GG(GT)1GG
[1]; [17]
  % inhibition of cell proliferation: 20%

## Hyaluronic acid [5.0–7.5 × 10^5 Da HA]
[1]; MCF-7 2.5×10^5 cells/ml, HA 0.01 μg/ml alone, no oligonucleotide
  % inhibition of cell proliferation: 6%
[1]; MCF-7 2.5×10^5 cells/ml, HA 0.1 μg/ml alone, no oligonucleotide
  % inhibition of cell proliferation: 5%
[1]; MCF-7, HA 0.008 μg/ml alone (+ saline), as in Example 6
  % inhibition of cell proliferation: 12%
[1]; MCF-7, HA 0.08 μg/ml alone (+ saline), as in Example 6
  % inhibition of cell proliferation: 12%
[1]; MCF-7, HA 0.8 μg/ml alone, 1.0×10^5 cells/ml, 48 h
  % inhibition of cell proliferation: 19%
[1]; MCF-7, HA 8.0 μg/ml alone, 1.0×10^5 cells/ml, 48 h
  % inhibition of cell proliferation: 24%
[1]; MCF-7, HA 80.0 μg/ml alone (+ saline), 2.0×10^4 cells/ml, 24-well, 48 h
  % inhibition of cell proliferation: 35%
[1]; MCF-7, HA 80.0 μg/ml alone, 1.0×10^5 cells/ml, 48 h
  % inhibition of cell proliferation: 35%
[2]; HA 0.8 μg/ml alone
  % inhibition of cell proliferation: 4%
[2]; HA 8.0 μg/ml alone
  % inhibition of cell proliferation: 4%
[2]; HA 80.0 μg/ml alone
  % inhibition of cell proliferation: 36%
[3]; [18]
  % inhibition of cell proliferation: 0%
[3]; [19]
  % inhibition of cell proliferation: 3%
[3]; [20]
  % inhibition of cell proliferation: 1%
[3]; [21]
  % inhibition of cell proliferation: 3%
[4]; HA 0.8 μg/ml alone
  % inhibition of cell proliferation: 10%
[4]; HA 8.0 μg/ml alone
  % inhibition of cell proliferation: 10%
[4]; HA 80.0 μg/ml alone
  % inhibition of cell proliferation: 2%
[5]; HA 0.008 μg/ml alone (+ saline), as in Example 6
  % inhibition of cell proliferation: 0%
[5]; HA 0.08 μg/ml alone (+ saline), as in Example 6
  % inhibition of cell proliferation: 0%
[5]; HA 0.8 μg/ml alone, 1.0×10^5 cells/ml, 48 h
  % inhibition of cell proliferation: 12%
[5]; HA 8.0 μg/ml alone, 1.0×10^5 cells/ml, 48 h
  % inhibition of cell proliferation: 13%
[5]; HA 80.0 μg/ml alone, 1.0×10^5 cells/ml, 48 h
  % inhibition of cell proliferation: 5%
[5]; HA at 0.8 μg/ml alone (+ saline), 2.0×10^4 cells/ml, 24-well, 48 h
  % inhibition of cell proliferation: 13%
[6]
  % inhibition of proliferation: 0%
[7]; [18]
  % inhibition of cell proliferation: 6%
[7]; [22]
  % inhibition of cell proliferation: 15%
[7]; [23]
  % inhibition of cell proliferation: 38%
[7]; [20]
  % inhibition of cell proliferation: 38%
[8]; HA 0.8 μg/ml alone
  % inhibition of cell proliferation: 20%
[8]; HA 8.0 μg/ml alone
  % inhibition of cell proliferation: 20%
[8]; HA 80.0 μg/ml alone
  % inhibition of cell proliferation: 30%
[9]; [18]
  % inhibition of cell proliferation: 15%
[9]; [22]
  % inhibition of cell proliferation: 26%
[9]; [23]
  % inhibition of cell proliferation: 30%
[10]; [24]
  IL-6 production, fold increase vs control cells: 3.8x
[10]; [25]
  IL-6 production, fold increase vs control cells: 1.8x
[10]; [26]
  IL-6 production, fold increase vs control cells: 4.1x
[10]; [27]
  IL-6 production, fold increase vs control cells: 1.4x
[10]; [28]
  IL-6 production, fold increase vs control cells: 6.3x
[10]; [29]
  IL-6 production, fold increase vs control cells: 2.4x
[10]; [30]
  IL-6 production, fold increase vs control cells: 3.5x
[10]; [31]
  IL-6 production, fold increase vs control cells: 2.9x
[11]; HA 0.8 μg/ml alone
  % inhibition of cell proliferation: 7%
[11]; HA 8.0 μg/ml alone, listed as 0.5–7.5 × 10^5 Da HA
  % inhibition of cell proliferation: 13%
[12]; [18]
  % inhibition of cell proliferation: 10%
[12]; [19]
  % inhibition of cell proliferation: 8%
[12]; [23]
  % inhibition of cell proliferation: 0%
[12]; [20]
  % inhibition of cell proliferation: 0%
[12]; [21]
  % inhibition of cell proliferation: 8%
[13]; [24]
  IL-12 production, fold increase vs control cells: 25.2x
[13]; [25]
  IL-12 production, fold increase vs control cells: 7.1x
[13]; [26]
  IL-12 production, fold increase vs control cells: 26.5x
[13]; [27]
  IL-12 production, fold increase vs control cells: 10.0x
[13]; [28]
  IL-12 production, fold increase vs control cells: 8.5x
[13]; [29]
  IL-12 production, fold increase vs control cells: 4.9x
[13]; [30]
  IL-12 production, fold increase vs control cells: 13.8x
[13]; [31]
  IL-12 production, fold increase vs control cells: 8.5x

## Hyaluronic acid [<1.5 × 10^4 Da HA]
[7]; [19]
  % inhibition of cell proliferation: 37%
[9]; [19]
  % inhibition of cell proliferation: 5%
[11]; HA 8.0 μg/ml alone
  % inhibition of cell proliferation: 24%

## Hyaluronic acid [HA]
[14]
  growth of cancer cells: significantly inhibits
[9]; [20]
  % inhibition of cell proliferation: 30%
[11]; HA 80.0 μg/ml alone
  % inhibition of cell proliferation: 26%
[15]
  reduction of tumor volume: > 85%
[16]
  effect on cancers: reduced or eliminated
